This passage reports IC50, EC50 and AC50 results from ChEMBL document CHEMBL1201862, “PubChem BioAssay data set” (2004).

Assay [1] concerns the target T1, Sentrin-specific protease 6 (Homo sapiens, UniProt Q9GZR1).
T1 sequence (Q9GZR1 whole entry): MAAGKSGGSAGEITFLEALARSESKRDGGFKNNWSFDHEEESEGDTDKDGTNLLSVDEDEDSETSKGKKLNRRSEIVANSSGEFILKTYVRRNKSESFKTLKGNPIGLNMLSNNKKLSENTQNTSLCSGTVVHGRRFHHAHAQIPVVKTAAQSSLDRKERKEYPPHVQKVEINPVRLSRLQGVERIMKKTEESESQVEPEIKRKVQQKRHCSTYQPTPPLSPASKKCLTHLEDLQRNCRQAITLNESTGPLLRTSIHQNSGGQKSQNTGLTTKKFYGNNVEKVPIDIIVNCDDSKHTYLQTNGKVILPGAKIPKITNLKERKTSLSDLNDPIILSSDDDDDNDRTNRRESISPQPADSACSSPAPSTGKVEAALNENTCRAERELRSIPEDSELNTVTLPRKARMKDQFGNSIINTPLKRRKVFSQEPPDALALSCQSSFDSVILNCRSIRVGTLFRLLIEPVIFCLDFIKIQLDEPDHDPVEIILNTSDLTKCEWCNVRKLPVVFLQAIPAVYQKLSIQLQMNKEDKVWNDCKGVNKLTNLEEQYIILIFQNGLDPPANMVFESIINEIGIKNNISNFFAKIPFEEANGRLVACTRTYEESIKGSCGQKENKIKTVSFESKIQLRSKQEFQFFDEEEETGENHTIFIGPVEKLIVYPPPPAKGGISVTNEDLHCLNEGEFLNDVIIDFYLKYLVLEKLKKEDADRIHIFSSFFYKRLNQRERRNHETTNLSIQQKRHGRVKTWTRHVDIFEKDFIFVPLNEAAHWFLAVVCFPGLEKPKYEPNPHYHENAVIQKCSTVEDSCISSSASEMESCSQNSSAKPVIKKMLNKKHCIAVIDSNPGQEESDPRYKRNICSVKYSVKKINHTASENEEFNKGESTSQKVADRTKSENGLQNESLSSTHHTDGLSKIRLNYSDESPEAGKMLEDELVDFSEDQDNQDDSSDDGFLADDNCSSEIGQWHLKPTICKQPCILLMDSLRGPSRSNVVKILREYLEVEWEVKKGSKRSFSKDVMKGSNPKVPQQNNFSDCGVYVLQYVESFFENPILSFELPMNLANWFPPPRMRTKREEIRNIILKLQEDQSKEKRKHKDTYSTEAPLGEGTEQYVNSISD
As to the kind of experiment: SAR Analysis of small molecule inhibitors of Sentrin-specific protease 6 (SENP6) using a Luminescent assay. [Related pubchem assays (depositor defined):AID2582, AID2599]. The class given is functional.

The target in assay [2] is T2, Sentrin-specific protease 8 (Homo sapiens, UniProt Q96LD8).
T2 sequence (Q96LD8 whole entry): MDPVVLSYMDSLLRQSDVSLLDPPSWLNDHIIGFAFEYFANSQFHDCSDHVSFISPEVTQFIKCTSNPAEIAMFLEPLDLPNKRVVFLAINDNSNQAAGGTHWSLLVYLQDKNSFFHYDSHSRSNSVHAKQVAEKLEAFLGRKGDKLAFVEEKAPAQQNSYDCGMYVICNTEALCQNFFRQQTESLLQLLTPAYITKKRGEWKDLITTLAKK
As to the kind of experiment: inhibition of human SENP8 cleavage activity – biochemical, luminescence, SAR follow-up (AID 504501). The class given is functional.

For assay [3], the target named is T3, Sentrin-specific protease 7 (Homo sapiens, UniProt Q9BQF6).
T3 sequence (Q9BQF6 whole entry): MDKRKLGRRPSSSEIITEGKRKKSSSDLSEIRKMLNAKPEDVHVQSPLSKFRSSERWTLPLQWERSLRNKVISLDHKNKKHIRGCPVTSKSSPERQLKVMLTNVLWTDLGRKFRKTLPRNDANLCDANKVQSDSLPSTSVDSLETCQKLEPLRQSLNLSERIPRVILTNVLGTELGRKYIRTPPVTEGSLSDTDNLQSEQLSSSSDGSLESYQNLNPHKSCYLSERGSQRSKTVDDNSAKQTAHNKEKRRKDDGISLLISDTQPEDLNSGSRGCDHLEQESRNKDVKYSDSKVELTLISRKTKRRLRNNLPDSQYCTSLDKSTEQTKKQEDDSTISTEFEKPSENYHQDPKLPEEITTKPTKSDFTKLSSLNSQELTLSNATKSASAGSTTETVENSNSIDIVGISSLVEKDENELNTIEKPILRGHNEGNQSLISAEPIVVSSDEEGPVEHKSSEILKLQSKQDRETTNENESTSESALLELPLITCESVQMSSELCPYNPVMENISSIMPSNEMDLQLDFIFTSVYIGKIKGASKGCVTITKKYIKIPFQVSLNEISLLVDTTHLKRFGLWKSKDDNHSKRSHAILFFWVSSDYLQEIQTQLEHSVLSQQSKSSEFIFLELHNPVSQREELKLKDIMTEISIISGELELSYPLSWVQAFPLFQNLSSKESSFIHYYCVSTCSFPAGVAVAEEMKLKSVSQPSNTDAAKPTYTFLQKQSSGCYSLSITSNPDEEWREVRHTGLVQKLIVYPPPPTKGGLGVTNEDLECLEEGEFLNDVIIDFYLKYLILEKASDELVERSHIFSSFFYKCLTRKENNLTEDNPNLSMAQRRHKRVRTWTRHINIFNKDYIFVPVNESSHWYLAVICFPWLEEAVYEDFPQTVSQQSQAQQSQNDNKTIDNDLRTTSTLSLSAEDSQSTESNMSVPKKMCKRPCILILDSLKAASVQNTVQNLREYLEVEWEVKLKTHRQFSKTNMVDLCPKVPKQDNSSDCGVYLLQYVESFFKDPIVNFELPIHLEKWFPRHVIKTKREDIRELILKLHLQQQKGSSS
As to the kind of experiment: inhibition of human SENP7 cleavage activity – biochemical, luminescence, SAR follow-up (AID 504497). It counts as functional.

In assay [4] the target is T4, Caspase-3 (Homo sapiens, UniProt P42574).
T4 sequence (P42574 whole entry): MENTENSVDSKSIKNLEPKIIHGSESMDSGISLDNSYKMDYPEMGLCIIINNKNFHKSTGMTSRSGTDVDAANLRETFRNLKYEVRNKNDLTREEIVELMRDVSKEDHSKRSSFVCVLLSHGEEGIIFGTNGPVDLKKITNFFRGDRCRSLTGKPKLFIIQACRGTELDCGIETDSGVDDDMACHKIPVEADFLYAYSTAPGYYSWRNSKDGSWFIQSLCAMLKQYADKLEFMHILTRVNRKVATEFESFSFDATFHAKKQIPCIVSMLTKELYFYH
The assay can be described thus: SAR Analysis of small molecule inhibitors of Sentrin-specific proteases (SENPs) using a Caspase-3 Selectivity assay. [Related pubchem assays (depositor defined):AID2540, AID2599, AID434973, AID489001]. It counts as functional.

The target in assay [5] is T5, Interleukin-8 (Homo sapiens, UniProt P10145).
T5 sequence (P10145 whole entry): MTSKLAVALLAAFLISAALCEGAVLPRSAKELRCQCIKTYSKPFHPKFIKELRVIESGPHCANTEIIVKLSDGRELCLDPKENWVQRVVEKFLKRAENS
The assay can be described thus: Dose Response confirmation of uHTS small molecule hits for cystic fibrosis induced NFkb Inhibitors in a PAF-induced IL8 counterscreen. The class given is functional. The conditions noted are these: read-out: IC50_Mean. In general terms: The purpose of a counterscreen is to sort out artefacts and off-target activity.

Assay [6] deals with DNA (cytosine-5)-methyltransferase 1 (Homo sapiens, UniProt P26358). As to the kind of experiment: inhibition of DNA methylation by DNMT1 – biochemical, fluorescent molecular beacon, confirmation (AID 602386). The class given is functional.
The subject of assay [7] is Streptococcus. The assay can be described thus: GAS UMAA2166 growth inhibition – luminescence, BacTiterGlo, counter-screen for streptokinase expression inhibitor project, dose response (AID 1915).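 Note: potency for reduction of bacterial viability or growth.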 The class given is functional, organism-based.
Assay [8] is described as follows: Luminescence Cell-Based Dose Retest to Confirm Inhibitors of Cancer Stem Cells. [Related pubchem assays (depositor defined):AID2717, AID2721]. It counts as functional. The conditions noted are these: Homo sapiens.
Assay [9] addresses Induced myeloid leukemia cell differentiation protein Mcl-1 (Homo sapiens, UniProt Q07820). It counts as functional.
For assay [10], the system named is Streptococcus sp. 'group A'. The assay can be described thus: Streptococcus pyogenes SK(-)GAS viability under kanamycin – luminescence, BacTiterGlo, confirmation, counter-screen for streptokinase expression inhibitor project, dose response (AID 1900). It counts as functional, organism-based.
The target of assay [11] is T6, Probable nicotinate-nucleotide adenylyltransferase (Staphylococcus aureus (strain N315), UniProt P65502). It counts as functional, Staphylococcus aureus subsp. aureus N315.
The target in assay [12] is T7, Aminopeptidase N (Plasmodium falciparum FcB1/Columbia, UniProt O96935).
T7 sequence (O96935 whole entry): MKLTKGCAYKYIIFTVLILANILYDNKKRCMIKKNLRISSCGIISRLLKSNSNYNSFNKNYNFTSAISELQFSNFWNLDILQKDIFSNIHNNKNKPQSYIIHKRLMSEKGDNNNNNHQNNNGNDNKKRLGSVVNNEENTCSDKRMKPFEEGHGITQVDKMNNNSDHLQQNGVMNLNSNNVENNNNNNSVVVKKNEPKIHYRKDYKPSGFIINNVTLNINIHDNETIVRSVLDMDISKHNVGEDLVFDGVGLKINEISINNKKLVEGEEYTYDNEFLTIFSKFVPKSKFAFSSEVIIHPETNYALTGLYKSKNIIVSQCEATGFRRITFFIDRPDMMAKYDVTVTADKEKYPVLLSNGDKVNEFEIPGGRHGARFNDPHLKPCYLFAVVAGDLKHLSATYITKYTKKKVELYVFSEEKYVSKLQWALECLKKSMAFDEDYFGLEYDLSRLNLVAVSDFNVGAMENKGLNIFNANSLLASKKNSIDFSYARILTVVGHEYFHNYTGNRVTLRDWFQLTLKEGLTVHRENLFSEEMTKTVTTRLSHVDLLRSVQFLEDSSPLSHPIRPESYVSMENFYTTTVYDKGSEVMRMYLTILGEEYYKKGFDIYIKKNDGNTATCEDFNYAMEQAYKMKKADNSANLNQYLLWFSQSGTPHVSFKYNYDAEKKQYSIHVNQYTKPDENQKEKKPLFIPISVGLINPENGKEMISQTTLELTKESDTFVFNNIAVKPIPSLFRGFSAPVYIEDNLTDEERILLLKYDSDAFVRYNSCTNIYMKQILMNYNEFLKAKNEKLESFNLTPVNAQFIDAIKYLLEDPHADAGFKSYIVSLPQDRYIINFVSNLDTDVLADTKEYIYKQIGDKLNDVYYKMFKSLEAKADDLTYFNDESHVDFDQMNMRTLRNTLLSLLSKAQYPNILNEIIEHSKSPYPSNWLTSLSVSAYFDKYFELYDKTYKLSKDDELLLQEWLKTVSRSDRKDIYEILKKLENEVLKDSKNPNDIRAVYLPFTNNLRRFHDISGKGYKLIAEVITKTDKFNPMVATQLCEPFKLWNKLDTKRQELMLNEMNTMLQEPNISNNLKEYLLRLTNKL
The assay can be described thus: malaria alanyl aminopeptidase activity blockers – biochemical, fluorogenic H-Leu-NHMec substrate, 1536-well (AID 1445). Set-up: species or system Plasmodium falciparum 3D7, 3D7.

Assay [13] deals with T6, Probable nicotinate-nucleotide adenylyltransferase. It counts as functional, Staphylococcus aureus subsp. aureus N315. The conditions noted are these: read-out: IC50_Mean.
In assay [14] the target is T8, Estrogen receptor beta (Homo sapiens, UniProt Q92731). The assay can be described thus: blockers of SRC-3 recruitment to ERβ – biochemical, ELISA, streptavidin-HRP readout, orthogonal assay, confirmation (AID 1060).
The target in assay [15] is T8, Estrogen receptor beta.
Assay [16] deals with Protein Wnt-3a (Mus musculus, UniProt P27467). The assay can be described thus: antagonism of Wnt3a pathway luciferase reporter – Wnt-LIGHT cells, luminescence, selectivity assay for Gli-SUFU antagonist project, dose response (AID 651570).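 Note: Wnt-LIGHT reporter cells stimulated with conditioned medium from Wnt3a-producing cells.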 It counts as functional. The conditions noted are these: read-out: IC50_Mean.

Calls of active or inactive are those of the source.
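Throughout, for AC50: cells exposed to compound for roughly 70 hours or longer before luminescence read.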

T6 sequence (P65502 whole entry): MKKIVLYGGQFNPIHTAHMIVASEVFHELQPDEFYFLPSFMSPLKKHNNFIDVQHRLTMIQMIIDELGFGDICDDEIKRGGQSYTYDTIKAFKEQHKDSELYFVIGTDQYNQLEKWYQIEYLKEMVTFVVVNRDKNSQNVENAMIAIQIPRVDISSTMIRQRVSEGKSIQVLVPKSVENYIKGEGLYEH
T8 sequence (Q92731 whole entry): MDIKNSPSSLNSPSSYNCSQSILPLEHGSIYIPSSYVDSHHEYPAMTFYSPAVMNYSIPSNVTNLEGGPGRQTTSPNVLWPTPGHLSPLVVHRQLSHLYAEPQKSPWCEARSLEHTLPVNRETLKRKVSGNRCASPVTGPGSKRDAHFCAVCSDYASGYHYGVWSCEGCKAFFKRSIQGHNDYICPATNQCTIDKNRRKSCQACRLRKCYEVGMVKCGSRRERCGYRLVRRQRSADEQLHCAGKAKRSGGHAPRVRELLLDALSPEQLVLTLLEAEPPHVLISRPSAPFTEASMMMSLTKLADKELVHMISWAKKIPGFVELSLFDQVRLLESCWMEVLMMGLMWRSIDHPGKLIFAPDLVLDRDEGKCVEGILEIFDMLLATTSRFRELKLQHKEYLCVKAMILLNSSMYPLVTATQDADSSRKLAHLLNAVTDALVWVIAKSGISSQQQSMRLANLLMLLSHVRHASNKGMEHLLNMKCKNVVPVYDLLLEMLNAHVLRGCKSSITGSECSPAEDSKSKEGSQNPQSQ
Sequence of Induced myeloid leukemia cell differentiation protein Mcl-1 (Q07820 whole entry): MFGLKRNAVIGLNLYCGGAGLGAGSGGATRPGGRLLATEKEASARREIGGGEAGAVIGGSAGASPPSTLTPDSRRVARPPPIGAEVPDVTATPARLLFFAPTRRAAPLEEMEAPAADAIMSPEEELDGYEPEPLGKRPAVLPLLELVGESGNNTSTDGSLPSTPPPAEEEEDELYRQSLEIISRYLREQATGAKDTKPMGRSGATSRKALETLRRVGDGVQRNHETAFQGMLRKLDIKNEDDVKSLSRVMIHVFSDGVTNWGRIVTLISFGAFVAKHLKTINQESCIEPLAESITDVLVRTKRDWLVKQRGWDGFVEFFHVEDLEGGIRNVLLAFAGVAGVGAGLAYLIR
Sequence of DNA (cytosine-5)-methyltransferase 1 (P26358 whole entry): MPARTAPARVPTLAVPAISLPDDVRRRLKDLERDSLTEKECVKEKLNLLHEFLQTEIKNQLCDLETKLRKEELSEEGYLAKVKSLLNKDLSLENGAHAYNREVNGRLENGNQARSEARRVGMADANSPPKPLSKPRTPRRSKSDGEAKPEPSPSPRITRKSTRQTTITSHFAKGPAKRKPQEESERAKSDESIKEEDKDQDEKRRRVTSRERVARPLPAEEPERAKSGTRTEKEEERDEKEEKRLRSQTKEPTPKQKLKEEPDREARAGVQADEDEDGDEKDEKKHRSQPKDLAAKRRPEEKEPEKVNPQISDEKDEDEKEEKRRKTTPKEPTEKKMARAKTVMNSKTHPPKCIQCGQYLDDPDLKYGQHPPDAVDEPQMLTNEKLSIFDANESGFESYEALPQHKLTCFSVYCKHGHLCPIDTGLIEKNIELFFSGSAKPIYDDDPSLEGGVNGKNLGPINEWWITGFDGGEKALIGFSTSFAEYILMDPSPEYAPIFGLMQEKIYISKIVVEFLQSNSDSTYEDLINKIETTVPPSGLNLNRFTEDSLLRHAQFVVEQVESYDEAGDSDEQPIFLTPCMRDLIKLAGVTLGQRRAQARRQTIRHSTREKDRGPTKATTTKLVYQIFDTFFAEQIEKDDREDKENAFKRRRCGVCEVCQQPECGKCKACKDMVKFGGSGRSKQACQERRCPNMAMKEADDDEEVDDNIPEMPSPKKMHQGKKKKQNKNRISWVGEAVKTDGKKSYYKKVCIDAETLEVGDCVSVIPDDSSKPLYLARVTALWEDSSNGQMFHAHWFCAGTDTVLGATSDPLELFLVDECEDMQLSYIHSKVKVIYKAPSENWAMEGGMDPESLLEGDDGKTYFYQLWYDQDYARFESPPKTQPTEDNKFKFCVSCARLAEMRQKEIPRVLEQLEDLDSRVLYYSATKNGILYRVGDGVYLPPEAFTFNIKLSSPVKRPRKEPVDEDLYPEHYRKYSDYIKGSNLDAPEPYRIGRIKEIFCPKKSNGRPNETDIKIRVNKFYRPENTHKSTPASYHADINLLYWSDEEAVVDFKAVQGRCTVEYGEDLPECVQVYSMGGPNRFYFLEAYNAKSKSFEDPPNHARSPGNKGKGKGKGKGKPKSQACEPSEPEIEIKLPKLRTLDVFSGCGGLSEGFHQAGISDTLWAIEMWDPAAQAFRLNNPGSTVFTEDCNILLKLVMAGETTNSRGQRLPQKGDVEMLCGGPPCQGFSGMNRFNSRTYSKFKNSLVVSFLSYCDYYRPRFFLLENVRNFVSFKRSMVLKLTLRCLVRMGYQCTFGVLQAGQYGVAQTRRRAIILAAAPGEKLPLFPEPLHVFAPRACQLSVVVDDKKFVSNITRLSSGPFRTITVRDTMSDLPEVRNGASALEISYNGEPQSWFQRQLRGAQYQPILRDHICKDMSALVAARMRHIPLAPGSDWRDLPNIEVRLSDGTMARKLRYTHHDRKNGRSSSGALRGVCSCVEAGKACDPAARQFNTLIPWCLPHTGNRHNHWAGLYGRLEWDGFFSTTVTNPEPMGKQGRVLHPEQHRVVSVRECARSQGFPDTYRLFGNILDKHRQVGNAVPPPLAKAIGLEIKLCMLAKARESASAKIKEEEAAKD
Sequence of Protein Wnt-3a (P27467 whole entry): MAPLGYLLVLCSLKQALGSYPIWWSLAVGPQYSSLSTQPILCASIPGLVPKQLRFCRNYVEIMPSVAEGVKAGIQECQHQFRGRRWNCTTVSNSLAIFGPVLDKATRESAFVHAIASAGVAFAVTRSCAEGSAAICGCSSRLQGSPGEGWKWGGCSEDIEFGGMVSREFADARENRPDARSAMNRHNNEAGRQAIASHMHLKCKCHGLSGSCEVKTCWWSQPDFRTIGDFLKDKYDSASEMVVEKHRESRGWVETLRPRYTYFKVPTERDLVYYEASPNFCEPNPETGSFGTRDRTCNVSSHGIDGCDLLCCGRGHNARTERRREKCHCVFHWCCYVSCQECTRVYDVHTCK

`CCOc1ccc2nc(NC(=O)c3ccc(NS(=O)(=O)c4cccs4)cc3)sc2c1`: the IC50 is > 99 µM (inactive) in assay [1], > 99 µM (inactive) in assay [2], 46.5 µM (active) in [3] and > 99 µM (inactive) in assay [4].

In the case of `CC1=C(C(=O)OCc2ccc3c(c2)OCO3)C(c2cccc([N+](=O)[O-])c2)NC(=O)N1` (stereo unspecified), the IC50 in [5] was > 79 µM (inactive).

Take `O=C(Nc1nc2ccc(NS(=O)(=O)c3ccc(Cl)s3)cc2s1)c1ccccc1`: the IC50 in [1] was 2.95 µM (active); in assay [2], 3.34 µM (active); in [3], 2.65 µM (active); in assay [4] it was 12 µM (active).

Take `CCCCOCCCNC(=O)CNC(=O)c1sc2ccccc2c1Cl`: the IC50 in [1], in assay [2], in assay [3] and in assay [4] was > 99 µM (inactive) throughout.

Take `COc1ccc(/C=C2/C(=O)N(c3nc4ccccc4s3)N=C2CSc2ccc(Cl)cc2)cc1`: the IC50 in assay [6] was 2.86 µM (active); in assay [9], 1.69 µM (active). The values for the EC50 in assay [7] and in [10] were 3.65 µM (active) and 0.647 µM (active), respectively. The AC50 in [8] was 3.01 µM (active).

Turning to `Cc1oc2c(cc(NS(=O)(=O)c3ccc4c5c(cccc35)C(=O)N4)c3ccccc32)c1C(=O)OC(C)C`, the IC50 was 28.6 µM (active) in [11]; 36.7 µM (active) in assay [12]; 63.2 µM (active) in [13]; 0.706 µM (not active) in assay [14]; 34.8 µM (not active) in [15].

`O=C(Nc1ccccc1)C1=C[C@@H](C2CCCCC2)C[C@@H](OCCCCO)O1`: the IC50 in assay [16] is 47.7 µM (inactive).

`Oc1ccc(Nc2nc(-c3cccs3)cs2)cc1`: the IC50 in assay [11] was 14.3 µM (active); in assay [13], 28.3 µM (active).

The term EC50 denotes the concentration giving half of the maximal effect. The AC50 is the concentration giving half of the maximal activity seen.
